Tests used:
Human iPS cells (201B7) [1] = test: Induction of differentiation into hepatic progenitor cells by growth-promoting agents (real-time quantitative PCR of AFP and DLK-1); assay type: cell-based; conditions: iPS cells transfected with FOXA2, GATA4, HEX, C/EBPα three times every three days, 8th day, n=3, ± standard error, ReproFF lane = 100; for α-fetoprotein/RPL19 ratio (mRNA expression): FIG. 3-1; for DLK-1/RPL19 ratio (mRNA expression): FIG. 3-2
Experimental: Human iPS cells (201B7, RIKEN cell bank) were seeded onto a matrigel-coated 6-well plate, and cultured in a medium, ReproFF in accordance with a conventional method under the following conditions: 37° C. and 5% carbon dioxide. A lipofection reagent, Lipofectamine LTX (registered trade mark, Life Technologies Japan Ltd.) was used to transfect 0.5 μg of expression plasmids of FOXA2, GATA4, HEX and C/EBPα, respectively.
As the expression vectors of the transcription factors, used were expression vectors (human TrueClone, OriGene Technologies, Inc., COSMO BIO co., ltd.) in which full-length cDNAs of human FOXA2, GATA4, HEX and CEBPA were each incorporated in the downstream of a potent-promoting agent derived from cytomegalovirus. In the human FOXA2 expression vector (catalog No. sc122913), the full-length cDNA coding human FoxA2 protein was inserted between EcoR1 and Sal1 restricted sites of pCMV6-XL5. In the human GATA4 expression vector (catalog No. sc124037), the full-length cDNA coding human GATA4 protein was inserted between EcoR1 and Sal1 restricted sites of pCMV6-XL4. In the human HEX expression vector (catalog No. sc321626), the full-length cDNA coding human HHEX protein was inserted between Sgf1 and Mlu1 restricted sites of pCMV6-AC. In the human CEBPA expression vector (catalog No. sc303472), the full-length cDNA coding human CEBPA protein was inserted between EcoR1 and Sal1 restricted sites of pCMV6-XL5.
Immediately before transfection, the medium to be used was changed to a medium obtained by adding oncostatin M (Wako Pure Chemical Industries, Ltd.), EGF (Wako Pure Chemical Industries, Ltd.) and retinoic acid (Wako Pure Chemical Industries, Ltd.) to the iPSm(−) medium. Here, the iPSm(−) medium corresponds to a medium obtained by eliminating a basic fibroblast growth factor from a medium for feeder cells of human iPS cells recommended by CiRA at Kyoto University. […]
The transfection of the transcription factors was repeated three times every three days, and, on the 8th day, RNA was extracted using Isogen (NIPPON GENE CO., LTD.). […] Then, the amount of expressed α-fetoprotein (AFP), which was an indicator of hepatic progenitor cells, was analyzed by the real-time quantitative PCR method using a real-time PCR analysis reagent, Fast SYBR Green Master Mix (trade name, Life Technologies Japan Ltd.). […] The amounts of α-fetoprotein (AFP) and Delta-like (DLK)-1 expressed were quantitatively determined as an indicator of hepatic progenitor cells by employing ribosome-related protein (RLP19) as internal standard (each group, n=3).
The real-time quantitative PCR was performed by using the following primers through a PCR cycle including 30 cycles of 5 seconds at 95° C. and 20 seconds at 60° C.

Human iPS cells (201B7) [2] = test: Expression of transcription factors in iPS cells cultured with single growth-promoting agents (RT-PCR, electrophoresis); assay type: cell-based; conditions: iPS cells in iPSm(−) medium with the growth-promoting agent added; PCR and electrophoresis, FIG. 2
Experimental: Reverse transcriptase (Life Technologies Japan Ltd.) was used to synthesize cDNAs of iPS cells, fetal hepatic cells and adult hepatic cells from 3 μg of RNA. The cDNAs were subjected to polymerase chain reaction (PCR) using the following primers to GATA4, FOXA2, HEX, C/EBPα and C/EBPβ, respectively, and to electrophoresis using 2% low-melting agarose (Lonza) and 1×TAE, for investigations on the expression of GATA4, FOXA2, HEX, C/EBPα and C/EBNβ in the iPS cells, fetal hepatic cells and adult hepatic cells.
After electrophoresis, the 2% low-melting agarose was irradiated with ultraviolet rays at 254 nm from a UV transilluminator (UVP LLC, NLMS-20E), and a Polaroid photograph (FUJIFILM Corporation, FP-3000B) thereof was taken with a gel camera (Funakoshi DS-300) to analyze an electrophoretic pattern.
PCR cycles performed included 30 cycles of thermal denaturation: 1 minute at 94° C.; annealing: 1 minute and elongation reaction: 1 minute at 72° C.
Human iPS cells (201B7, RIKEN cell bank) were seeded onto a matrigel-coated 6-well plate, and cultured in a feeder-less medium, ReproFF (trade name, Reprocell Inc.) for culture of stem cells maintained in an undifferentiated state, without using a feeder cell, under conventional conditions: 37° C. and 5% carbon dioxide.
A medium obtained by adding a 20% knock-out serum replacement (Life Technologies Japan Ltd.), 10% Minimum Essential Amino Acids (Life Technologies Japan Ltd.), 2 mM of L-glutamine (Life Technologies Japan Ltd.) and 1 mM of 2-mercaptoethanol to a D-MEM/F12 medium (Dulbecco's Modified Eagle Medium-F12 medium, Sigma-Aldrich Japan) was used as an iPSm(−) medium.
The following growth-promoting agents were added to the iPSm(−) medium, and SOX-17, GATA6, FOXA2, GATA4, HEX, TTR and C/EBPα were expressed in a manner similar to that in Experiment 1.
As the growth-promoting agents, added were bFGF (basic fibroblast growth factor, Wako Pure Chemical Industries, Ltd.), BMP (bone morphogenetic protein)-4 (Wako Pure Chemical Industries, Ltd.), oncostatinM (Wako Pure Chemical Industries, Ltd.), an epidermal growth factor (EGF, Wako Pure Chemical Industries, Ltd.), a nerve growth factor (NGF, R & D Systems, Inc.), TGF-β, (transform growth factor-β, R& D Systems, Inc.), retinoic acid (Sigma-Aldrich Japan) and a hepatic cell growth factor (HGF, Sigma-Aldrich Japan).
RT-PCR to SOX-17, GATA6 and TTR was performed under the following conditions.

C[C@@H]1C[C@H]2[C@@H]3CCC4=CC(=O)C=C[C@]4(C)[C@@]3(F)[C@@H](O)C[C@]2(C)[C@@]1(O)C(=O)CO [dexamethasone]
α-fetoprotein/RPL19 ratio (mRNA expression) (Human iPS cells (201B7) [1]): 50.1±5 | DLK-1/RPL19 ratio (mRNA expression) (Human iPS cells (201B7) [1]): 208±54

CC1=C(/C=C/C(C)=C/C=C/C(C)=C/C(=O)O)C(C)(C)CCC1 [retinoic acid]
α-fetoprotein/RPL19 ratio (mRNA expression) (Human iPS cells (201B7) [1]): 133±58 | DLK-1/RPL19 ratio (mRNA expression) (Human iPS cells (201B7) [1]): 79±40

TGF-β: transform growth factor-β, R&D Systems
expression of C/EBPα (Human iPS cells (201B7) [2]): not observed to be expressed | expression of FOXA2 (Human iPS cells (201B7) [2]): not observed to be expressed | expression of GATA4 (Human iPS cells (201B7) [2]): not observed to be expressed | expression of GATA6 (Human iPS cells (201B7) [2]): observed to be expressed | expression of HEX (Human iPS cells (201B7) [2]): not observed to be expressed
